16 molecules from patent US11485742B2, “2-azaspiro[3.4]octane derivatives as M4 agonists” (NOVARTIS AG, priority 2019, dated 2022) can be followed below.

In this assay the target is T1, human cloned CHRM2 receptor (Homo sapiens, UniProt P08172).
T1 construct: expressed in transfected cells; host or cells: CHO-K1 (M2_CHO)
T1 sequence (P08172 1-466): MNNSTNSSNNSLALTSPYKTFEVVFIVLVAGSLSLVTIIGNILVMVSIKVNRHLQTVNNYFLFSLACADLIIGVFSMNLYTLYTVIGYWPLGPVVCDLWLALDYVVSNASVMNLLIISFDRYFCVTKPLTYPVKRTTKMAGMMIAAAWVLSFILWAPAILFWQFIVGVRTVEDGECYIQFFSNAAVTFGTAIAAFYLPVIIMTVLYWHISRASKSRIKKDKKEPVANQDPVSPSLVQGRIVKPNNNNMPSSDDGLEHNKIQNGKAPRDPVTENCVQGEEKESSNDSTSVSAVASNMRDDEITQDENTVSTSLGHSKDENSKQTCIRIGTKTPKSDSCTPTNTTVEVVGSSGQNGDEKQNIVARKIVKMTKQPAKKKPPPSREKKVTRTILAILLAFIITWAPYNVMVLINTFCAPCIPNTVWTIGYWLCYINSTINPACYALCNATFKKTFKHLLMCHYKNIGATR
As to the kind of experiment: CHRM2 Ca++ Flux Assay (M2_CHO cells, agonist mode). Format: cell-based. Conditions: M2 CHO cells; for EC50: agonist mode, geometric mean if tested more than once, read-out: M2 FDSS EC50; for Emax / M2 FDSS PA %: Percent Activity (PA) measured to EC100 of Carbachol; for Emax: read-out: M2 FDSS PA %. Here is the method:
The above examples were characterized by measuring the intracellular mobilization of Ca^++ ions caused by signaling events mediated by the receptor. The Intra-cellular Calcium flux levels were captured by the highly sensitive Ca^++ indicator, Calcium Assay Kit (BD Biosciences; Catalog Number 640178. The fluorescent activity from all receptors were monitored by the fluorescent imager, FDSS 7000EX (Hamamatsu) over a span of 3 minutes. The change in Calcium flux was readily captured upon activation with the muscarinic orthosteric agonist, Carbachol.
CHO-K1 cells stably expressing the human cloned CHRM2 receptor (M2_CHO cells) were grown and maintained in a monolayer culture with F12/HAM (Life Technologies) supplemented with 10% Fetal Bovine Serum, 1×Pen-Strep, and 0.4 mg/mL Geneticin in a humidified atmosphere (5% CO2) at 37° C. The cultures were grown to 80-90% confluency in T150 flasks (Corning) and washed with 1×DPBS and lifted with 0.05% Trypsin (Life Technologies). The cells were then spun (1K rpm, 3 minutes) and frozen using Recovery Cell Culture Freezing Media (Gibco Technologies). Cells were stored in liquid nitrogen and thawed a day before the assay.
Prior to the day of the assay, stable M2 CHO cells were thawed and plated on Greiner 384 well TC treated plate at a density of 12K cells/well and kept overnight in a humidified atmosphere (5% CO2) at 37° C. The following day, the cells were loaded with Ca^++ dye (BD Biosciences) using Loading Buffer (HBSS +Ca/+Mg, 20 mM HEPES, 2.5 mM Probenecid) and placed back in cell incubator for a minimum of 1 hour and maximum of 2 hours. After incubation, the dye was replaced with Assay Buffer (HBSS −Ca/−Mg, 20 mM HEPES, 2.5 mM Probenecid) supplemented with 20 μM ATP (Sigma Aldrich) and kept at room temperature for 60 minutes prior before running on cell imager. The FDSS 7000EX (Hamamatsu) was used to acquire Ca^++ traces from cells in response to compound treatment and the data was used to generate dose response curves in agonist mode. All compounds were serially diluted in DMSO then prepared in Assay Buffer for Ca^−+ flux studies. The dose response curves were generated from the average of triplicate wells obtained from each data point and used a non-linear regression of four parameter dose response algorithm. The Percent Activity (PA) was measured to EC100 of Carbachol.
If an Example was tested more than once in an assay, then the values below represent the geometric mean of the results from each independent experiment.

Bounds are passed on as bounds.

By EC50 is commonly meant the concentration needed to bring the measured effect to its halfway point. Take `Fc1cc(O[C@@H]2CCOC2)c(C2CCN([C@@H]3COC4(C3)CN(c3nncs3)C4)CC2)cc1F` [Example 5M, (S)-7-(4-(4,5-difluoro-2-(((R)-tetrahydrofuran-3-yl)oxy)phenyl)piperidin-1-yl)-2-(1,3,4-thiadiazol-2-yl)-5-oxa-2-azaspiro[3.4]octane]: the EC50 came to 415 nM and the Emax worked out at 34%.

As to `Fc1ccc(OC[C@H]2CCO2)c(C2CCN([C@@H]3COC4(C3)CN(c3nncs3)C4)CC2)c1.O=C(O)C(F)(F)F` (single isomer, unassigned) [Example 2C, (S)-7-(4-(5-fluoro-2-(((R)-oxetan-2-yl)methoxy)phenyl)piperidin-1-yl)-2-(1,3,4-thiadiazol-2-yl)-5-oxa-2-azaspiro[3.4]octane trifluoroacetate or (S)-7-(4-(5-fluoro-2-(((S)-oxetan-2-yl)methoxy)phenyl)piperidin-1-yl)-2-(1,3,4-thiadiazol-2-yl)-5-oxa-2-azaspiro[3.4]octane trifluoroacetate], the EC50 stood at 321 nM and the “M2 FDSS PA %” value stood at 39%.

Take `CC(C)(O)COc1ccc(F)cc1C1CCN([C@@H]2COC3(C2)CN(c2ncco2)C3)CC1` [Example 4K, (S)-1-(4-fluoro-2-(1-(2-(oxazol-2-yl)-5-oxa-2-azaspiro[3.4]octan-7-yl)piperidin-4-yl)phenoxy)-2-methylpropan-2-ol]: the EC50 is above 25000 nM and the Emax worked out at 0%.

Take `Fc1cc(F)c(O[C@@H]2CCOC2)c(C2CCN([C@@H]3COC4(C3)CN(c3nnco3)C4)CC2)c1` [Example 2CC, (S)-7-(4-(3,5-difluoro-2-(((R)-tetrahydrofuran-3-yl)oxy)phenyl)piperidin-1-yl)-2-(1,3,4-oxadiazol-2-yl)-5-oxa-2-azaspiro[3.4]octane]: the EC50 came to 2070 nM and the Emax turned out to be 37%.

Consider `Fc1cc(OC2CCOCC2)c(C2CCN([C@@H]3COC4(C3)CN(c3nnco3)C4)CC2)cc1F` [Example 2GG, (S)-7-(4-(4,5-difluoro-2-((tetrahydro-2H-pyran-4-yl)oxy)phenyl)piperidin-1-yl)-2-(1,3,4-oxadiazol-2-yl)-5-oxa-2-azaspiro[3.4]octane], for which the EC50 was above 25000 nM and the Emax was found to be 0%.

Take `C[C@H](Oc1ccc(F)cc1C1CCN([C@@H]2COC3(C2)CN(c2nnco2)C3)CC1)C1CCOCC1` [Example 2X, (S)-7-(4-(5-fluoro-2-((S)-1-(tetrahydro-2H-pyran-4-yl)ethoxy)phenyl)piperidin-1-yl)-2-(1,3,4-oxadiazol-2-yl)-5-oxa-2-azaspiro[3.4]octane or(S)-7-(4-(5-fluoro-2-((R)-1-(tetrahydro-2H-pyran-4-yl)ethoxy)phenyl)piperidin-1-yl)-2-(1,3,4-oxadiazol-2-yl)-5-oxa-2-azaspiro[3.4]octane]: the EC50 amounted to 11200 nM and the “M2 FDSS PA %” value worked out at 23%.

For `Fc1ccc([C@H]2CCOC2)c(C2CCN([C@@H]3COC4(C3)CN(c3nnco3)C4)CC2)c1` (single isomer, unassigned) [Example 3E, (S)-7-(4-(5-fluoro-2-((R)-tetrahydrofuran-3-yl)phenyl)piperidin-1-yl)-2-(1,3,4-oxadiazol-2-yl)-5-oxa-2-azaspiro[3.4]octane or (S)-7-(4-(5-fluoro-2-((S)-tetrahydrofuran-3-yl)phenyl)piperidin-1-yl)-2-(1,3,4-oxadiazol-2-yl)-5-oxa-2-azaspiro[3.4]octane], the EC50 was 404 nM and the “M2 FDSS PA %” value was found to be 60%.

With `Cc1nc(COc2ccccc2C2CCN([C@@H]3COC4(C3)CN(c3nncs3)C4)CC2)no1` [Example 5F, (S)-7-(4-(2-((5-methyl-1,2,4-oxadiazol-3-yl)methoxy)phenyl)piperidin-1-yl)-2-(1,3,4-thiadiazol-2-yl)-5-oxa-2-azaspiro[3.4]octane], the EC50 worked out at 73 nM and the Emax turned out to be 51%.

As to `Fc1ccc(O[C@H]2CCCOC2)c(C2CCN([C@@H]3COC4(C3)CN(c3nnco3)C4)CC2)c1` (single isomer, unassigned) [Example 2Q, (S)-7-(4-(5-fluoro-2-(((S)-tetrahydro-2H-pyran-3-yl)oxy)phenyl)piperidin-1-yl)-2-(1,3,4-oxadiazol-2-yl)-5-oxa-2-azaspiro[3.4]octane or (S)-7-(4-(5-fluoro-2-(((R)-tetrahydro-2H-pyran-3-yl)oxy)phenyl)piperidin-1-yl)-2-(1,3,4-oxadiazol-2-yl)-5-oxa-2-azaspiro[3.4]octane], the EC50 was found to be 1160 nM and the “M2 FDSS PA %” value worked out at 26%.

In the case of `Fc1ccc(OC2CC3(COC3)C2)c(C2CCN([C@@H]3COC4(C3)CN(c3ncco3)C4)CC2)c1` [Example 4G, (S)-7-(4-(2-((2-oxaspiro[3.3]heptan-6-yl)oxy)-5-fluorophenyl)piperidin-1-yl)-2-(oxazol-2-yl)-5-oxa-2-azaspiro[3.4]octane], the concentration giving a half-maximal response (EC50) worked out at 13100 nM and the Emax was found to be 58%.

For the molecule `Fc1ccc(O[C@H]2CCOC2)c(C2CCN([C@@H]3COC4(C3)CN(c3nnco3)C4)CC2)c1` [Example 1H, (S)-7-(4-(5-fluoro-2-(((S)-tetrahydrofuran-3-yl)oxy)phenyl)piperidin-1-yl)-2-(1,3,4-oxadiazol-2-yl)-5-oxa-2-azaspiro[3.4]octane], the EC50 was 801 nM and the Emax is 30%.

`CC(C)(O)[C@H]1C[C@@H](Oc2ccc(F)cc2C2CCN([C@@H]3COC4(C3)CN(c3ncco3)C4)CC2)C1` (single isomer, unassigned) [Example 4T, 2-((1R,3s)-3-(4-fluoro-2-(1-((S)-2-(oxazol-2-yl)-5-oxa-2-azaspiro[3.4]octan-7-yl)piperidin-4-yl)phenoxy)cyclobutyl)propan-2-ol or 2-((1S,3r)-3-(4-fluoro-2-(1-((S)-2-(oxazol-2-yl)-5-oxa-2-azaspiro[3.4]octan-7-yl)piperidin-4-yl)phenoxy)cyclobutyl)propan-2-ol]: the EC50 was 17700 nM and the “M2 FDSS PA %” value is given as 43%.

`O[C@H]1CC[C@@H](c2ccc(F)cc2C2CCN([C@@H]3COC4(C3)CN(c3nnco3)C4)CC2)CC1` (single isomer, unassigned) [Example 3H, (1R,4s)-4-(2-(1-((S)-2-(1,3,4-oxadiazol-2-yl)-5-oxa-2-azaspiro[3.4]octan-7-yl)piperidin-4-yl)-4-fluorophenyl)cyclohexan-1-ol or (1S,4r)-4-(2-(1-((S)-2-(1,3,4-oxadiazol-2-yl)-5-oxa-2-azaspiro[3.4]octan-7-yl)piperidin-4-yl)-4-fluorophenyl)cyclohexan-1-ol]: the EC50 was found to be 2460 nM and the “M2 FDSS PA %” value was found to be 30%.

As to `Fc1ccc(OC2CCOCC2)c(C2CCN([C@@H]3COC4(C3)CN(c3ncco3)C4)CC2)c1` [Example 4E, (S)-7-(4-(5-fluoro-2-((tetrahydro-2H-pyran-4-yl)oxy)phenyl)piperidin-1-yl)-2-(oxazol-2-yl)-5-oxa-2-azaspiro[3.4]octane], the EC50 was above 25000 nM and the Emax worked out at 0%.

`Fc1ccc(OC[C@@H]2COCCO2)c(C2CCN([C@@H]3COC4(C3)CN(c3nnco3)C4)CC2)c1` [Example 1F, (S)-7-(4-(2-(((S)-1,4-dioxan-2-yl)methoxy)-5-fluorophenyl)piperidin-1-yl)-2-(1,3,4-oxadiazol-2-yl)-5-oxa-2-azaspiro[3.4]octane]: the EC50 was determined as 390 nM and the Emax stood at 31%.

On to `CC(C)(O)COc1ccc(F)cc1C1CCN([C@@H]2COC3(C2)CN(c2nncs2)C3)CC1` [Example 5U, (S)-1-(2-(1-(2-(1,3,4-thiadiazol-2-yl)-5-oxa-2-azaspiro[3.4]octan-7-yl)piperidin-4-yl)-4-fluorophenoxy)-2-methylpropan-2-ol], for which the EC50 came out at 483 nM and the Emax is 17%.
